Measured values published in US11753395B2 (Kinnate Biopharma Inc., priority 2021, dated 2023).

What was measured:
MET = molecular target: T1, MET (Homo sapiens, UniProt P08581); assay: MET Mobility Shift Assay; conditions: biochemical assay IC50; 100 μM ATP, 60 minute kinase reaction
T1 construct: purchased Carna Biosciences 08-151
Method in brief: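 Recombinant MET at 0.625 nM was pre-incubated 30 min at room temperature with 1.5 μM FLPeptide30 and 10 mM MgCl2 in HEPES buffer with DTT. The reaction was started with 100 μM ATP, ran 60 min, and was stopped with EDTA. Microfluidic mobility-shift % conversion gave IC50.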

MET D1228N = molecular target: T2, MET D1228N (Homo sapiens, UniProt P08581, D1228N); assay: MET D1228N Mobility Shift Assay; conditions: biochemical assay IC50; 100 μM ATP, 60 minute kinase reaction
T2 construct: purchased Signalchem M52-12IG
T2 sequence (P08581 25-1390 D1228N): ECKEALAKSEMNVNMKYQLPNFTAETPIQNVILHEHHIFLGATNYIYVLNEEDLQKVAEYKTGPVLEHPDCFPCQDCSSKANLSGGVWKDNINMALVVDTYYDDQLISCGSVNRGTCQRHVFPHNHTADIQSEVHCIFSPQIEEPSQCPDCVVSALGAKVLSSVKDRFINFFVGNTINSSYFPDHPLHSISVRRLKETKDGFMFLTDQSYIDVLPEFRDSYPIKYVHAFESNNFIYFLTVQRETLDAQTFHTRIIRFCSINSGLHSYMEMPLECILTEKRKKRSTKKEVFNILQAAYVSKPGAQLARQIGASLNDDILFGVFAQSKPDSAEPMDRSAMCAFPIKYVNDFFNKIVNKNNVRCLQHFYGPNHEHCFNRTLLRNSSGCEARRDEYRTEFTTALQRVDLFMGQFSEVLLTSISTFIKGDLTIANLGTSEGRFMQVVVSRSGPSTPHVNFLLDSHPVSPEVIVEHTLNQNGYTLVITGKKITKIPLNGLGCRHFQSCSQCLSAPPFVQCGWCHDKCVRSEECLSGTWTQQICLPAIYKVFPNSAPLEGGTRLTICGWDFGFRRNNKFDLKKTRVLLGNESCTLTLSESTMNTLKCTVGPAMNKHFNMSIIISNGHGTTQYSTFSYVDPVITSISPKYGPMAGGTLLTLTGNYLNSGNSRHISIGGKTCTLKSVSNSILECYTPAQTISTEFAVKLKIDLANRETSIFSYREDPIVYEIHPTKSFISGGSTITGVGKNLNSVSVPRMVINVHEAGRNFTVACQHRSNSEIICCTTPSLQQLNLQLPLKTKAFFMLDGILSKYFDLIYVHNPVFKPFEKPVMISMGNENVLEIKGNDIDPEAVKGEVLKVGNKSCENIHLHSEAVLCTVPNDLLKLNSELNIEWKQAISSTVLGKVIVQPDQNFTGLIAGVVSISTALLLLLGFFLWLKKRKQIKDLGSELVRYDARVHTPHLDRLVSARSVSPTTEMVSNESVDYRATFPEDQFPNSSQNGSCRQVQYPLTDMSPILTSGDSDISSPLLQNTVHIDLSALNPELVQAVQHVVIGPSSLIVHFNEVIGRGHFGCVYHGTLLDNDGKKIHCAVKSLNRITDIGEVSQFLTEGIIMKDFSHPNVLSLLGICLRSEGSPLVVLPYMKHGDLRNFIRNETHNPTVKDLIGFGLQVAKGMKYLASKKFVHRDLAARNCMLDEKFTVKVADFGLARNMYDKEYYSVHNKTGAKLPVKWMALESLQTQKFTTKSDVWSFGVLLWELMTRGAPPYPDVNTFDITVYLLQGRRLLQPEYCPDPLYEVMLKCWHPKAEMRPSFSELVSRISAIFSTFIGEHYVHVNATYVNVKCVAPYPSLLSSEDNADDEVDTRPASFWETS
Method in brief: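 Enzyme at 0.313 nM preincubated 30 min at room temperature with 1.5 μM FAM-labelled peptide and 10 mM MgCl2 in HEPES buffer with DTT; reaction started with 100 μM ATP, run 60 min, stopped with EDTA. Substrate/product separated by microfluidic mobility shift; IC50 from inhibition of % conversion.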

Ba/F3-TPR-MET cells = molecular target: T3, Ba/F3-TPR-MET cells (Homo sapiens, UniProt P08581); assay: CellTiter-Glo Cell Viability Assay, Ba/F3-TPR-MET; assay type: cell-based; conditions: 72 hours
T3 construct: fused on or other part: P12270 (Nucleoprotein TPR)
T3 sequence (P08581 whole entry, change not shown, the tested form may be a part): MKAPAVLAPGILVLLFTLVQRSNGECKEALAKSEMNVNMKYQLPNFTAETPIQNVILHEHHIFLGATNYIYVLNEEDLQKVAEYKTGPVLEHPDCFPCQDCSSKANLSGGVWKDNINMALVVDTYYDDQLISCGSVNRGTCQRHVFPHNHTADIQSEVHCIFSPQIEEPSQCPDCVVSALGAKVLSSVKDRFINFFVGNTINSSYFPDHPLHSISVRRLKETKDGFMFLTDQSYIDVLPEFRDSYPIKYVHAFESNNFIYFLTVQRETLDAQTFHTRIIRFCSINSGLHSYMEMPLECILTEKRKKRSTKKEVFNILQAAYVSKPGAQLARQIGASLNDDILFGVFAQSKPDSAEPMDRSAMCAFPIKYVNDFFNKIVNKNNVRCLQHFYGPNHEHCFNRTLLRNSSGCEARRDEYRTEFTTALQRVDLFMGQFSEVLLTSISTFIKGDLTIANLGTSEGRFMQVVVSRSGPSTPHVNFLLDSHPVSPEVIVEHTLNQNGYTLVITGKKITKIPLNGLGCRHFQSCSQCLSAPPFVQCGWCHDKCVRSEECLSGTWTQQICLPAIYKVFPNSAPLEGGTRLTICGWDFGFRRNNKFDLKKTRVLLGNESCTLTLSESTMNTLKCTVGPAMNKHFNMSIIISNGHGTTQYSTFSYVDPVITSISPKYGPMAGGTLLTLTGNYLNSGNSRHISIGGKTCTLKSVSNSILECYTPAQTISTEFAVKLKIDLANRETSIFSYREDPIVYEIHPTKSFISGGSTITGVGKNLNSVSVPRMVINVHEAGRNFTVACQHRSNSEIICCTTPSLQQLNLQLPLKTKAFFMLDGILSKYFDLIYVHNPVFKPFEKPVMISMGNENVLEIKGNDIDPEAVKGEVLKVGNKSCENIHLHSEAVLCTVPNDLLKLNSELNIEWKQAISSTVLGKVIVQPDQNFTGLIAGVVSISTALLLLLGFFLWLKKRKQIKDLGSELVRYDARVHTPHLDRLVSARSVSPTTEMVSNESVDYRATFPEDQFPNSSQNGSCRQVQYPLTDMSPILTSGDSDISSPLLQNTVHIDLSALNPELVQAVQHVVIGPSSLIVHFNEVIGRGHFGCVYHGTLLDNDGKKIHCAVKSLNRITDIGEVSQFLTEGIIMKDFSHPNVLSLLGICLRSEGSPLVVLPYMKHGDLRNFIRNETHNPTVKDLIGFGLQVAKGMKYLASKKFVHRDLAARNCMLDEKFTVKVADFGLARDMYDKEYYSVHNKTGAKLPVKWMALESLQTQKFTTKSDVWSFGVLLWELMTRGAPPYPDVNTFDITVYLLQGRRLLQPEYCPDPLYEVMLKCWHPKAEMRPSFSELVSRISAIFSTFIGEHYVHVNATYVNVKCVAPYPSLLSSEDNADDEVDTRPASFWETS
Method in brief: (§1)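 Ba/F3 cells carrying TPR-MET or TPR-MET-D1228N, 3000 per well, were exposed for 72 h at 37 °C to 9-point 3-fold compound dilutions at 0.1% DMSO. Viability was read as ATP by CellTiter-Glo 2.0 luminescence, and IC50 values came from curve fitting.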

[1] = molecular target: T4, Ba/F3-TPR-MET-D1228N cells (Homo sapiens, UniProt P08581, D1228N, cells depend on it); assay: CellTiter-Glo Cell Viability Assay, Ba/F3-TPR-MET-D1228N; assay type: cell-based; conditions: 72 hours
T4 construct: fused on or other part: P12270 (Nucleoprotein TPR)
Method in brief: as §1

T1 sequence (P08581 25-1390): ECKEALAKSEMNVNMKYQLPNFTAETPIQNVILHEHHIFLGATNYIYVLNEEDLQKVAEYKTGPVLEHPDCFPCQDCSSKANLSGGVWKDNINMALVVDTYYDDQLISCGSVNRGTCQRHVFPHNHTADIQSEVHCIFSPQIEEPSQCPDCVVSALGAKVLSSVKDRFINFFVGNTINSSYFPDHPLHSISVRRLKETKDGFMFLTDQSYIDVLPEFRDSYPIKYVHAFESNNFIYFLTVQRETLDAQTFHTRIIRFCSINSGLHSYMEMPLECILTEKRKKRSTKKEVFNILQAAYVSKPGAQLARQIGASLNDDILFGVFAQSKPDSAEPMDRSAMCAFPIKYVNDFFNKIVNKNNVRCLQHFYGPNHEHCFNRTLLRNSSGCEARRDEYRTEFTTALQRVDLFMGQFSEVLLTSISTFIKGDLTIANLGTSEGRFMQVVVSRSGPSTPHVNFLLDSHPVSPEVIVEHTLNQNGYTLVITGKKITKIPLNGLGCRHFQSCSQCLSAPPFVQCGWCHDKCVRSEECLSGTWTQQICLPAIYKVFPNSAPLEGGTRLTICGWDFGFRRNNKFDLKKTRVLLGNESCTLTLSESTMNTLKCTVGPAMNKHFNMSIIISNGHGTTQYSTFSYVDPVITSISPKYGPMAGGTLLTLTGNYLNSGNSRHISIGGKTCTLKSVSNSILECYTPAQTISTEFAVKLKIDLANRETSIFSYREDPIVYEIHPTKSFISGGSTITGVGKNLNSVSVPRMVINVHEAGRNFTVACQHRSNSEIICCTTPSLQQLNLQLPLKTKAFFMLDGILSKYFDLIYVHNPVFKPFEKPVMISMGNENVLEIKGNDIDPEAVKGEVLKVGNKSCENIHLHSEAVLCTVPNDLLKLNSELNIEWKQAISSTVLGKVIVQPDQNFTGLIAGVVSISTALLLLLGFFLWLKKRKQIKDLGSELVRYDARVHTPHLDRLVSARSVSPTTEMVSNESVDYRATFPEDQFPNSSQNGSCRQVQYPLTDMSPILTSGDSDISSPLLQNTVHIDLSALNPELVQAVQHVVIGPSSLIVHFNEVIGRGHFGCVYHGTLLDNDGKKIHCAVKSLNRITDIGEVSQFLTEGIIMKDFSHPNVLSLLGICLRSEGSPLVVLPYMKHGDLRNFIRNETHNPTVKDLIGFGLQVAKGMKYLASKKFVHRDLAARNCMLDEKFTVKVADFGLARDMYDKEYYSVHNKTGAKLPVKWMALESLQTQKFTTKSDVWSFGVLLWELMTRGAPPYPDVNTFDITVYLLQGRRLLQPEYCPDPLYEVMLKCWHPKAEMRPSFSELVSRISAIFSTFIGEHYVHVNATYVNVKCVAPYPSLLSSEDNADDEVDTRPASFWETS

Row | SMILES | IC50 (MET) | IC50 (MET D1228N) | EC50 (Ba/F3-TPR-MET cells) | EC50 [1]
1 | CNCCCOc1cc2nccc(Oc3c(F)cc(NC(=O)c4cnccc4OC4CCC4)cc3F)c2cc1OC [Example 85, 4-cyclobutoxy-N-(3,5-difluoro-4-((6-methoxy-7-(3-(methylamino)propoxy)quinolin-4-yl)oxy)phenyl)pyridine-3-carboxamide] | ≤ 100 nM | ≤ 100 nM | 100 to 1000 nM | 100 to 1000 nM
2 | CNCCCOc1cc2nccc(Oc3c(F)cc(NC(=O)c4cnccc4OC4COC4)cc3F)c2cc1OC [Example 86, N-(3,5-difluoro-4-((6-methoxy-7-(3-(methylamino)propoxy)quinolin-4-yl)oxy)phenyl)-4-(oxetan-3-yloxy)pyridine-3-carboxamide] | ≤ 100 nM | ≤ 100 nM | 100 to 1000 nM | 100 to 1000 nM
3 | CNCCOc1ccc2c(Oc3c(F)cc(NC(=O)c4cnccc4OC4CC4)cc3F)ccnc2c1 [Example 87, 4-cyclopropoxy-N-[3,5-difluoro-4-({7-[2-(methylamino)ethoxy]quinolin-4-yl}oxy)phenyl]pyridine-3-carboxamide] | ≤ 100 nM | ≤ 100 nM | ≤ 100 nM | ≤ 100 nM
4 | NC1(COc2ccc3c(Oc4c(F)cc(NC(=O)c5cnccc5OC5CC5)cc4F)ccnc3c2)CC1 [Example 88] | ≤ 100 nM | ≤ 100 nM | 100 to 1000 nM | ≤ 100 nM
5 | O=C(Nc1cc(F)c(Oc2ccnc3cc(OC4CNC4)ccc23)c(F)c1)c1cnccc1OC1CC1 [Example 89, N-(4-{[7-(azetidin-3-yloxy)quinolin-4-yl]oxy}-3,5-difluorophenyl)-4-cyclopropoxypyridine-3-carboxamide] | ≤ 100 nM | ≤ 100 nM | 100 to 1000 nM | 100 to 1000 nM
6 | COc1ccc2c(Oc3c(F)cc(NC(=O)c4cnccc4OC4CC4)cc3F)ccnc2c1 [Example 90, 4-cyclopropoxy-N-{3,5-difluoro-4-[(7-methoxyquinolin-4-yl)oxy]phenyl}pyridine-3-carboxamide] | ≤ 100 nM | ≤ 100 nM | 100 to 1000 nM | ≤ 100 nM
7 | COc1cc2nccc(Oc3c(F)cc(NC(=O)c4cnccc4OC4CC4)cc3F)c2cc1OC [Example 91, 4-cyclopropoxy-N-{4-[(6,7-dimethoxyquinolin-4-yl)oxy]-3,5-difluorophenyl}pyridine-3-carboxamide] | ≤ 100 nM | ≤ 100 nM | ≤ 100 nM | ≤ 100 nM

Now from value to compound, other results behind:

Row | IC50 (MET) | IC50 (MET D1228N) | SMILES | EC50 (Ba/F3-TPR-MET cells) | EC50 [1]
8 | ≤ 100 nM | ≤ 100 nM | CNCCCOc1cc2nccc(Oc3c(F)cc(NC(=O)c4cnccc4OC4CC4)cc3F)c2cc1OC [Example 84, 4-cyclopropoxy-N-(3,5-difluoro-4-((6-methoxy-7-(3-(methylamino)propoxy)quinolin-4-yl)oxy)phenyl)pyridine-3-carboxamide] | 100 to 1000 nM | ≤ 100 nM
9 | ≤ 100 nM | ≤ 100 nM | COc1cc2nccc(Oc3c(F)cc(NC(=O)c4cnccc4OC4CC4)c(F)c3F)c2cc1OC [Example 92, 4-cyclopropoxy-N-{4-[(6,7-dimethoxyquinolin-4-yl)oxy]-2,3,5-trifluorophenyl}pyridine-3-carboxamide] | 100 to 1000 nM | 100 to 1000 nM
10 | ≤ 100 nM | ≤ 100 nM | CNCCOc1cc2nccc(Oc3c(F)cc(NC(=O)c4cnccc4OC4CC4)c(F)c3F)c2cc1OC [Example 93, 4-cyclopropoxy-N-[2,3,5-trifluoro-4-({6-methoxy-7-[2-(methylamino)ethoxy]quinolin-4-yl}oxy)phenyl]pyridine-3-carboxamide] | ≤ 100 nM | ≤ 100 nM
11 | ≤ 100 nM | ≤ 100 nM | CNCCOc1ccc2c(Oc3c(F)cc(NC(=O)c4cnccc4OC4CC4)c(F)c3F)ccnc2c1 [Example 94, 4-cyclopropoxy-N-[2,3,5-trifluoro-4-({7-[2-(methylamino)ethoxy]quinolin-4-yl}oxy)phenyl]pyridine-3-carboxamide] | ≤ 100 nM | ≤ 100 nM
